Laboratory results published in the supplement of paper PMC11061612.

Legend:
[1] = tested on: NB(TU)1-10 (Neuroblastoma); test: Bliss excess, mean over the matrix (fraction); higher = more synergy
Method in brief: (§1)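 Cell lines in DMEM/F12 or RPMI with 10% FBS were plated in 1536-well plates, held 24 hours at 37°C, 5% CO2, then given two-drug dose matrices for 72 hours (DMSO typically 0.2%). Viability was read by CellTiter-Glo 2.0 luminescence and scaled as inhibition from 0 (vehicle wells) to 1 (blank wells). Combination Emax is the second-highest inhibition in the matrix; Bliss excess is observed combination effect minus expected EA + EB − EA·EB, EA and EB being single-agent effects.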

[2] = tested on: COR-L95 (Small Cell Lung Carcinoma); test: combination Emax (second highest fraction inhibited in the dose matrix, 72 h); higher = more inhibition; extreme values may be limits of the assay
Method in brief: as §1

[3] = tested on: NB(TU)1-10 (Neuroblastoma); test: as above
Method in brief: as §1

[4] = tested on: TGBC24TKB (Biliary Tract Carcinoma); test: as above
Method in brief: as §1

[5] = tested on: NCI-H211 (Small Cell Lung Carcinoma); test: Bliss excess, mean over the matrix (fraction); higher = more synergy
Method in brief: as §1

[6] = tested on: NCI-H211 (Small Cell Lung Carcinoma); test: combination Emax (second highest fraction inhibited in the dose matrix, 72 h); higher = more inhibition; extreme values may be limits of the assay
Method in brief: as §1
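For Bliss excess, mean over the matrix in this document: after 72 h of two-drug dosing.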

Structure (SMILES) | Bliss excess [1] | combination Emax [2] | combination Emax [3] | combination Emax [4] | Bliss excess [5] | combination Emax [6]
CN(C)CCCOc1ccc(-c2ccc3ncc4c(c3c2)n(C2CCOCC2)c(=O)n4C)cn1 [AZD0156] + C=CCn1c(=O)c2cnc(Nc3ccc(N4CCN(C)CC4)cc3)nc2n1-c1cccc(C(C)(C)O)n1 [AZD1775] (first compound max 1 µM, partner max 1 µM) | 0.014 | 0.623 | 0.857 | 0.677 |  | 
CN(C)CCCOc1ccc(-c2ccc3ncc4c(c3c2)n(C2CCOCC2)c(=O)n4C)cn1 [AZD0156] + CCN(CCO)CCCOc1ccc2c(Nc3cc(CC(=O)Nc4cccc(F)c4)[nH]n3)ncnc2c1 [AZD2811] (first compound max 1 µM, 7x7, partner max 1 µM) | -0.0294 | 0.208 | 0.292 | 0.505 |  | 
CN(C)CCCOc1ccc(-c2ccc3ncc4c(c3c2)n(C2CCOCC2)c(=O)n4C)cn1 [AZD0156] + C[C@@H]1COCCN1C2=NC(=NC(=C2)C3(CC3)[S@](=N)(=O)C)C4=C5C=CNC5=NC=C4 [AZD6738] (first compound max 1 µM, 7x7, partner max 10 µM) | -0.0026 | 0.525 | 0.798 | 0.796 |  | 
C=CCn1c(=O)c2cnc(Nc3ccc(N4CCN(C)CC4)cc3)nc2n1-c1cccc(C(C)(C)O)n1 [AZD1775] + C[C@@H]1COCCN1C2=NC(=NC(=C2)C3(CC3)[S@](=N)(=O)C)C4=C5C=CNC5=NC=C4 [AZD6738] (first compound max 1 µM, partner max 10 µM) | 0.0985 | 0.737 | 0.875 | 0.832 |  | 
C=CCn1c(=O)c2cnc(Nc3ccc(N4CCN(C)CC4)cc3)nc2n1-c1cccc(C(C)(C)O)n1 [AZD1775] + O=C(c1cc(Cc2n[nH]c(=O)c3ccccc23)ccc1F)N1CCN(C(=O)C2CC2)CC1 [Olaparib] (first compound max 1 µM, partner max 10 µM) | 0.0461 | 0.639 | 0.815 | 0.687 |  | 
COc1nnc2ccc(N3CCC(c4ccc(OCCN5CCN(C)C(=O)[C@H]5C)cc4)CC3)nn12 [AZD5153] + C[C@@H]1COCCN1C2=NC(=NC(=C2)C3(CC3)[S@](=N)(=O)C)C4=C5C=CNC5=NC=C4 [AZD6738] (first compound max 1 µM, 7x7, partner max 10 µM) |  | 0.547 |  | 0.855 | -0.008 | 1
COc1nnc2ccc(N3CCC(c4ccc(OCCN5CCN(C)C(=O)[C@H]5C)cc4)CC3)nn12 [AZD5153] + Cc1c2c(nn1C)CSCc1cc(n(C)n1)CSc1cc(c3ccccc3c1)OCCCc1c(C(=O)O)n(C)c3c-2c(Cl)ccc13 [AZD5991] (first compound max 1 µM, 7x7, partner max 1 µM) |  | 0.371 |  | 0.848 | -0.0175 | 1
COc1nnc2ccc(N3CCC(c4ccc(OCCN5CCN(C)C(=O)[C@H]5C)cc4)CC3)nn12 [AZD5153] + Cn1cnc2c(F)c(Nc3ccc(Br)cc3Cl)c(C(=O)NOCCO)cc21 [Selumetinib] (first compound max 1 µM, 7x7, partner max 10 µM) |  | 0.218 |  | 0.893 | 0.0477 | 1
NC1(C(=O)N[C@@H](CCO)c2ccc(Cl)cc2)CCN(c2ncnc3[nH]ccc23)CC1 [Capivasertib] + CC(=O)c1c(C)c2cnc(Nc3ccc(N4CCNCC4)cn3)nc2n(C2CCCC2)c1=O [Palbociclib] (first compound max 10 µM, 7x7, partner max 10 µM) |  | 0.172 |  | 0.556 | 0.0926 | 0.59
NC1(C(=O)N[C@@H](CCO)c2ccc(Cl)cc2)CCN(c2ncnc3[nH]ccc23)CC1 [Capivasertib] + CC(C)n1c(=O)n(C)c2cnc3cc(F)c(-c4ccc(OCCCN5CCCCC5)nc4)cc3c21 [AZD1390] (first compound max 10 µM, 7x7, partner max 0.3 µM) |  | 0.164 |  | 0.25 | -0.0294 | 0.488
NC1(C(=O)N[C@@H](CCO)c2ccc(Cl)cc2)CCN(c2ncnc3[nH]ccc23)CC1 [Capivasertib] + CCN(CCO)CCCOc1ccc2c(Nc3cc(CC(=O)Nc4cccc(F)c4)[nH]n3)ncnc2c1 [AZD2811] (first compound max 10 µM, 7x7, partner max 1 µM) |  | 0.172 |  | 0.58 | -0.0107 | 0.944
NC1(C(=O)N[C@@H](CCO)c2ccc(Cl)cc2)CCN(c2ncnc3[nH]ccc23)CC1 [Capivasertib] + COc1nnc2ccc(N3CCC(c4ccc(OCCN5CCN(C)C(=O)[C@H]5C)cc4)CC3)nn12 [AZD5153] (first compound max 10 µM, 7x7, partner max 1 µM) |  | 0.399 |  | 0.789 | -0.0113 | 1
NC1(C(=O)N[C@@H](CCO)c2ccc(Cl)cc2)CCN(c2ncnc3[nH]ccc23)CC1 [Capivasertib] + C[C@@H]1COCCN1C2=NC(=NC(=C2)C3(CC3)[S@](=N)(=O)C)C4=C5C=CNC5=NC=C4 [AZD6738] (first compound max 10 µM, 7x7, partner max 10 µM) |  | 0.542 |  | 0.711 | 0.0232 | 0.665
NC1(C(=O)N[C@@H](CCO)c2ccc(Cl)cc2)CCN(c2ncnc3[nH]ccc23)CC1 [Capivasertib] + Cn1cnc2c(F)c(Nc3ccc(Br)cc3Cl)c(C(=O)NOCCO)cc21 [Selumetinib] (first compound max 10 µM, 7x7, partner max 10 µM) |  | 0.22 |  | 0.556 | 0.119 | 0.568
Cc1nc(Nc2ncc(C(=O)Nc3c(C)cccc3Cl)s2)cc(N2CCN(CCO)CC2)n1 [Dasatinib] + CC(=O)Nc1cccc(-n2c(=O)n(C3CC3)c(=O)c3c(Nc4ccc(I)cc4F)n(C)c(=O)c(C)c32)c1 [Trametinib] (first compound max 2 µM, 7x7, partner max 1 µM) |  | 0.128 |  | 0.736 | 0.0556 | 0.456
COc1cc2ncnc(Nc3ccc(F)c(Cl)c3)c2cc1OCCCN1CCOCC1 [Gefitinib] + CC(C)n1c(=O)n(C)c2cnc3cc(F)c(-c4ccc(OCCCN5CCCCC5)nc4)cc3c21 [AZD1390] (first compound max 10 µM, 7x7, partner max 0.3 µM) |  | 0.261 |  | 0.348 | -0.053 | 0.227
CS(=O)(=O)CCNCc1ccc(-c2ccc3ncnc(Nc4ccc(OCc5cccc(F)c5)c(Cl)c4)c3c2)o1 [Lapatinib] + C[C@@H](Oc1cc(-c2cnn(C3CCNCC3)c2)cnc1N)c1c(Cl)ccc(F)c1Cl [Crizotinib] (first compound max 10 µM, 7x7, partner max 10 µM) |  | 0.812 |  | 0.952 | -0.0329 | 0.948
CC(=O)c1c(C)c2cnc(Nc3ccc(N4CCNCC4)cn3)nc2n(C2CCCC2)c1=O [Palbociclib] + CC1(C)CCC(CN2CCN(c3ccc(C(=O)NS(=O)(=O)c4ccc(NCC5CCOCC5)c([N+](=O)[O-])c4)c(Oc4cnc5[nH]ccc5c4)c3)CC2)=C(c2ccc(Cl)cc2)C1 [Venetoclax] (first compound max 10 µM, 7x7, partner max 1 µM) |  | 0.709 |  | 0.274 | 0.0694 | 0.965
CC(=O)c1c(C)c2cnc(Nc3ccc(N4CCNCC4)cn3)nc2n(C2CCCC2)c1=O [Palbociclib] + Cc1c2c(nn1C)CSCc1cc(n(C)n1)CSc1cc(c3ccccc3c1)OCCCc1c(C(=O)O)n(C)c3c-2c(Cl)ccc13 [AZD5991] (first compound max 10 µM, 7x7, partner max 1 µM) |  | 0.196 |  | 0.585 | 0.118 | 0.905
CC(=O)c1c(C)c2cnc(Nc3ccc(N4CCNCC4)cn3)nc2n(C2CCCC2)c1=O [Palbociclib] + Cn1cnc2c(F)c(Nc3ccc(Br)cc3Cl)c(C(=O)NOCCO)cc21 [Selumetinib] (first compound max 10 µM, 7x7, partner max 10 µM) |  | 0.283 |  | 0.429 | 0.0861 | 0.657
C[C@@H](c1ccc2nccn2c1)n1nnc2ncc(-c3cnn(C)c3)nc21 [Savolitinib] + CC1(C)CCC(CN2CCN(c3ccc(C(=O)NS(=O)(=O)c4ccc(NCC5CCOCC5)c([N+](=O)[O-])c4)c(Oc4cnc5[nH]ccc5c4)c3)CC2)=C(c2ccc(Cl)cc2)C1 [Venetoclax] (first compound max 1 µM, 7x7, partner max 1 µM) |  | 0.586 |  | 0.215 | 0.0317 | 0.744
C[C@@H](c1ccc2nccn2c1)n1nnc2ncc(-c3cnn(C)c3)nc21 [Savolitinib] + Cc1c2c(nn1C)CSCc1cc(n(C)n1)CSc1cc(c3ccccc3c1)OCCCc1c(C(=O)O)n(C)c3c-2c(Cl)ccc13 [AZD5991] (first compound max 1 µM, 7x7, partner max 1 µM) |  | 0.163 |  | 0.182 | 0.033 | 0.859
Cn1cnc2c(F)c(Nc3ccc(Br)cc3Cl)c(C(=O)NOCCO)cc21 [Selumetinib] + C=CCn1c(=O)c2cnc(Nc3ccc(N4CCN(C)CC4)cc3)nc2n1-c1cccc(C(C)(C)O)n1 [AZD1775] (first compound max 10 µM, partner max 1 µM) |  | 0.32 |  | 0.637 | 0.0248 | 0.831
Cn1cnc2c(F)c(Nc3ccc(Br)cc3Cl)c(C(=O)NOCCO)cc21 [Selumetinib] + CC(C)n1c(=O)n(C)c2cnc3cc(F)c(-c4ccc(OCCCN5CCCCC5)nc4)cc3c21 [AZD1390] (first compound max 10 µM, 7x7, partner max 0.3 µM) |  | 0.18 |  | 0.828 | -0.0015 | 0.239
Cn1cnc2c(F)c(Nc3ccc(Br)cc3Cl)c(C(=O)NOCCO)cc21 [Selumetinib] + CCN(CCO)CCCOc1ccc2c(Nc3cc(CC(=O)Nc4cccc(F)c4)[nH]n3)ncnc2c1 [AZD2811] (first compound max 10 µM, 7x7, partner max 1 µM) |  | 0.21 |  | 0.551 | -0.0446 | 0.938
Cn1cnc2c(F)c(Nc3ccc(Br)cc3Cl)c(C(=O)NOCCO)cc21 [Selumetinib] + C[C@@H]1COCCN1C2=NC(=NC(=C2)C3(CC3)[S@](=N)(=O)C)C4=C5C=CNC5=NC=C4 [AZD6738] (first compound max 10 µM, 7x7, partner max 10 µM) |  | 0.535 |  | 0.703 | -0.0285 | 0.606
